Source: the NIST ThermoML archive (doi:10.1021/je060271a)

Conditions: 343.15 K, Liquid, Vibrating tube method

CCCCC(=O)OCC(COC(=O)CCCC)(COC(=O)CCCC)COC(=O)CCCC [pentaerythritol tetrapentanoate]
Conditions	mass density [kg/m3]
120 kPa	978.7
122.2 kPa	978.7
125.2 kPa	978.7
129.2 kPa	978.7
133.3 kPa	978.6
138.9 kPa	978.6
146.6 kPa	978.5
154.5 kPa	978.6
164.6 kPa	978.5
180.1 kPa	978.6
197 kPa	978.6
217.8 kPa	978.7
250.8 kPa	978.7
286.7 kPa	978.8
330.1 kPa	978.8
380.3 kPa	978.7
749.2 kPa	979
1709.2 kPa	979.9
1788.2 kPa	980
1843.4 kPa	979.8
1867.5 kPa	979.9
1894.4 kPa	980
1917.3 kPa	979.9
1941.1 kPa	980
1965.4 kPa	980.1
1994.4 kPa	979.9
2019 kPa	980.2
2044.9 kPa	980.2
2075.6 kPa	980
2102.6 kPa	980
2129.9 kPa	980.2
2163.5 kPa	980.2
2193.4 kPa	980.1
2252.9 kPa	980.3
2352.8 kPa	980.3
2494.2 kPa	980.5
2573.8 kPa	980.5
2651 kPa	980.7
2698.2 kPa	980.6
2738.4 kPa	980.4
2779.7 kPa	980.7
2830.5 kPa	980.7
2972.7 kPa	980.9
3068.2 kPa	981
3117.1 kPa	980.9
3897.8 kPa	981.5
3924.9 kPa	981.5
3952.8 kPa	981.6
3986.3 kPa	981.7
4014.7 kPa	981.6
4043.6 kPa	981.7
4073 kPa	981.8
4107.7 kPa	981.6
4137.6 kPa	981.7
4168.8 kPa	981.8
4199.3 kPa	981.8
4230.1 kPa	981.9
4267.5 kPa	981.9
4299.4 kPa	981.8
4597.4 kPa	982
4629.6 kPa	982.1
4643.1 kPa	982
4660.4 kPa	982.2
4661.1 kPa	982.1
4661.7 kPa	982.1
4662.3 kPa	982.1
4662.6 kPa	982
4663.1 kPa	982.2
4754 kPa	982
4934.5 kPa	982.4
4956.5 kPa	982.3
4979.2 kPa	982.3
5005.6 kPa	982.4
5027.6 kPa	982.5
5050.1 kPa	982.4
5076.2 kPa	982.3
5120.9 kPa	982.4
5279.4 kPa	982.6
5366.4 kPa	982.7
5392 kPa	982.8
